≈ marks a conversion by molar mass, not a printed value. Where two headings read alike, the source gives them in different places.
Columns and labels:
Str. pneumoniae A-9585 = assay: MIC, tube dilution, Streptococcus pneumoniae A9585; type: cell-based; conditions: Streptococcus pneumoniae, A9585, Str. pneumoniae A9585; overnight 37° C., Nutrient Broth; read-out: Minimum Inhibitory Concentration (M.I.C.)
Text: (§1) Representative compounds of the present invention were subjected to in vitro antibiotic screening against a variety of microorganisms.

Str. pyogenes A-9604 = assay: MIC, tube dilution, Streptococcus pyogenes A9604; type: cell-based; conditions: Streptococcus pyogenes, A9604, Str. pyogenes A9604; overnight 37° C., Nutrient Broth; read-out: Minimum Inhibitory Concentration (M.I.C.)
Text: as §1

Staph. aureus A-9537 = assay: MIC, tube dilution, Staphylococcus aureus A9537; type: cell-based; conditions: Staphylococcus aureus, A9537, Staph. aureus A9537; overnight 37° C., Nutrient Broth; read-out: Minimum Inhibitory Concentration (M.I.C.)
Text: as §1

[1] = test system: Staph. aureus A-9537 and 50% serum; assay: MIC, tube dilution, Staph. aureus A9537 + 50% serum; type: cell-based, Staphylococcus aureus; conditions: Staphylococcus aureus, overnight 37° C., read-out: Minimum Inhibitory Concentration (M.I.C.)
Text: as §1

[2] = test system: Staph. aureus (Pen-Res) A-9606; assay: MIC, tube dilution, Staphylococcus aureus A9606 (Pen-Res); type: cell-based; conditions: Staphylococcus aureus, Staph. aureus A9606 (Pen-Res); overnight 37° C.; read-out: Minimum Inhibitory Concentration (M.I.C.)
Text: as §1

[3] = test system: Staph. aureus (Meth-Res) A-15097; assay: MIC, tube dilution, Staphylococcus aureus A15097 (Meth-Res); type: cell-based; conditions: overnight 37° C.; for MIC: Staphylococcus aureus
Text: as §1

Str. faecalis A-20688 = assay: MIC, tube dilution, Streptococcus faecalis A20688; type: cell-based; conditions: Enterococcus faecalis, A20688, Str. faecalis A20688; overnight 37° C.; read-out: Minimum Inhibitory Concentration (M.I.C.)
Text: as §1

E. coli A-15119 = assay: MIC, tube dilution, Escherichia coli A15119; type: cell-based; conditions: Escherichia coli, A15119, E. coli A15119; overnight 37° C.; read-out: Minimum Inhibitory Concentration (M.I.C.)
Text: as §1

E. coli A-20341-1 = assay: MIC, tube dilution, Escherichia coli A20341-1; type: cell-based
Text: as §1

K. pneumoniae A-15130 = assay: MIC, tube dilution, Klebsiella pneumoniae A15130; type: cell-based; conditions: Klebsiella pneumoniae, A15130, K. pneumoniae A15130; overnight 37° C.; read-out: Minimum Inhibitory Concentration (M.I.C.)
Text: as §1

[4] = test system: Klebsiella species A20468; assay: MIC, tube dilution, Klebsiella species A20468; type: cell-based; conditions: Klebsiella species (K. pneumoniae) A20468; overnight 37° C.; read-out: Minimum Inhibitory Concentration (M.I.C.)
Text: as §1

Pr. mirabilis A-9900 = assay: MIC, tube dilution, Proteus mirabilis A9900; type: cell-based; conditions: Proteus mirabilis, A9900, Proteus mirabilis A9900; overnight 37° C.; read-out: Minimum Inhibitory Concentration (M.I.C.)
Text: as §1

Pr. morganii A-15153 = assay: MIC, tube dilution, Proteus morganii A15153; type: cell-based; conditions: Morganella morganii, A15153, Proteus morganii A15153; overnight 37° C.; read-out: Minimum Inhibitory Concentration (M.I.C.)
Text: as §1

Ser. marcescens A-20019 = assay: MIC, tube dilution, Serratia marcescens A20019; type: cell-based; conditions: Serratia marcescens, A20019, Serratia marcescens A20019; overnight 37° C.; read-out: Minimum Inhibitory Concentration (M.I.C.)
Text: as §1

Ent. cloacae A-9659 = assay: MIC, tube dilution, Enterobacter cloacae A9659; type: cell-based; conditions: Enterobacter cloacae, A9659, Enterobacter cloacae A9659; overnight 37° C.; read-out: Minimum Inhibitory Concentration (M.I.C.)
Text: as §1

Proteus rettgeri A21203 = assay: MIC, tube dilution, Proteus rettgeri A21203; type: cell-based; conditions: Providencia rettgeri, A21203, Proteus rettgeri A21203; overnight 37° C.; read-out: Minimum Inhibitory Concentration (M.I.C.)
Text: as §1

Proteus vulgaris A21559 = assay: MIC, tube dilution, Proteus vulgaris A21559; type: cell-based; conditions: Proteus vulgaris, A21559, Proteus vulgaris A21559; overnight 37° C.; read-out: Minimum Inhibitory Concentration (M.I.C.)
Text: as §1

S. aureus A9537 = assay: In vivo protection of mice, lethal infection with S. aureus A9537; conditions: Staphylococcus aureus, A9537, im, IM, 2 treatments, 8 × 10^5 organisms; read-out: PD50
Method: Representative compounds of the present invention were also tested in vivo in mice and their PD50 (dose of compound in mg/kg required to protect 50% of the treated mice against an otherwise lethal infection of a micro-organism) values determined with respect to the test organisms shown below.

Ent. cloacae A-9656 = assay: MIC, tube dilution, Enterobacter cloacae A9656; type: cell-based; conditions: Enterobacter cloacae, A9656, Enterobacter cloacae A9656; overnight 37° C.; read-out: Minimum Inhibitory Concentration (M.I.C.)
Text: as §1

Ps. aeruginosa A-9843A = assay: MIC, tube dilution, Pseudomonas aeruginosa A9843A; type: cell-based; conditions: Pseudomonas aeruginosa, A9843A, read-out: Minimum Inhibitory Concentration (M.I.C.), Pseudomonas aeruginosa A9843A; overnight 37° C.
Text: as §1

Pr. vulgaris A-9716 = assay: MIC, tube dilution, Proteus vulgaris / Proteus mirabilis A9716; type: cell-based, Proteus vulgaris (name changed to Proteus mirabilis); conditions: Proteus vulgaris, A9716, Proteus vulgaris / Proteus mirabilis A9716; overnight 37° C.; read-out: Minimum Inhibitory Concentration (M.I.C.)
Text: as §1

Ps. aeruginosa A-21213 = assay: MIC, tube dilution, Pseudomonas aeruginosa A21213; type: cell-based; conditions: Pseudomonas aeruginosa A21213; overnight 37° C.; read-out: Minimum Inhibitory Concentration (M.I.C.)
Text: as §1

[5] = Staph. aureus A15097 (Meth-Res), read-out: Minimum Inhibitory Concentration (M.I.C.)
[6] = Escherichia coli, A203411, E. coli A20341-1; overnight 37° C.; read-out: Minimum Inhibitory Concentration (M.I.C.)
[7] = read-out: Minimum Inhibitory Concentration (M.I.C.), Staph. aureus A15097 (Meth-Res)
[8] = Escherichia coli, A203411; E. coli A20341-1; overnight 37° C.; read-out: Minimum Inhibitory Concentration (M.I.C.)

Row | SMILES | MIC (Str. pneumoniae A-9585) [µg/mL] | MIC (Str. pyogenes A-9604) [µg/mL] | MIC (Staph. aureus A-9537) [µg/mL] | MIC [1] [µg/mL] | MIC [2] [µg/mL] | MIC [3, 5] [µg/mL] | MIC (Str. faecalis A-20688) [µg/mL] | MIC (E. coli A-15119) [µg/mL] | MIC (E. coli A-20341-1; [6]) [µg/mL] | MIC (K. pneumoniae A-15130) [µg/mL] | MIC [4] [µg/mL] | MIC (Pr. mirabilis A-9900) [µg/mL] | MIC (Pr. morganii A-15153) [µg/mL] | MIC (Ser. marcescens A-20019) [µg/mL] | MIC (Ent. cloacae A-9659) [µg/mL] | MIC (Proteus rettgeri A21203) [µg/mL] | MIC (Proteus vulgaris A21559) [µg/mL] | ED50 (S. aureus A9537) [mg/kg] | MIC (Ent. cloacae A-9656) [µg/mL] | MIC (Ps. aeruginosa A-9843A) [µg/mL] | further results
1 | NCC1CC1C1=C(C(=O)O)N2C(=O)CC2S1 [Example 79, (1'R,2'S,5S and 1'S,2'R,5S; 1'S,2'R,5R and 1'R,2'S,5S) 2-(trans-2-aminomethyl-1-cyclopropyl)-penem-3-carboxylic acid] | 0.016 (≈ 0.0666 µM) | 0.03 (≈ 0.125 µM) | 0.06 (≈ 0.25 µM) | 0.25 | 0.5 (≈ 2.08 µM) | > 63 | 16 (≈ 66.6 µM) | 4 (≈ 16.6 µM) | 16 (≈ 66.6 µM) | 16 (≈ 66.6 µM) | > 63 | 8 (≈ 33.3 µM) | 16 (≈ 66.6 µM) | 8 (≈ 33.3 µM) | 32 (≈ 133 µM) | 8 (≈ 33.3 µM) | 16 (≈ 66.6 µM) | 0.8 |  |  | Minimum Inhibitory Concentration (M.I.C.) ([3]; Staph. aureus A15097 (Meth-Res)): 125 µg/mL
2 | C[C@@H](O)[C@H]1C(=O)N2C(C(=O)O)=C(CCCCN)S[C@H]12 (relative stereo) [Example 64, (1'R,5R,6S and 1'S,5S,6R)-2-(4-Aminobutyl)-6-(1'-hydroxy-ethyl)-penem-3-carboxylic Acid (isomer B)] | 0.016 (≈ 0.0559 µM) | 0.03 (≈ 0.105 µM) | 0.06 (≈ 0.21 µM) | 0.13 | 0.13 (≈ 0.454 µM) | 0.25 (≈ 0.873 µM) | 4 (≈ 14 µM) | 2 (≈ 6.98 µM) | 2 (≈ 6.98 µM) | 4 (≈ 14 µM) | 4 (≈ 14 µM) | 4 (≈ 14 µM) | 4 (≈ 14 µM) | 4 (≈ 14 µM) | 4 (≈ 14 µM) | 4 (≈ 14 µM) | 2 (≈ 6.98 µM) | 0.04 | 16 (≈ 55.9 µM) | 16 (≈ 55.9 µM) | 
3 | Cn1cc(C2=C(C(=O)O)N3C(=O)CC3S2)cn1 (stereo not shown) [Example 15] | 0.13 (≈ 0.517 µM) | 0.5 (≈ 1.99 µM) | 1 (≈ 3.98 µM) | > 63 | 32 (≈ 127 µM) |  | 63 (≈ 251 µM) | 16 (≈ 63.7 µM) |  | 125 (≈ 497 µM) | > 125 | 16 (≈ 63.7 µM) | 63 (≈ 251 µM) | 63 (≈ 251 µM) | 125 (≈ 497 µM) | 16 (≈ 63.7 µM) |  |  | 63 (≈ 251 µM) | 125 (≈ 497 µM) | MIC [3, 7]: 125 µg/mL (≈ 497 µM); MIC (E. coli A-20341-1; [8]): > 125 µg/mL; MIC (Pr. vulgaris A-9716): 16 µg/mL (≈ 63.7 µM); MIC (Ps. aeruginosa A-21213): 125 µg/mL (≈ 497 µM)
4 | O=C(O)C1=C(Cc2c[nH]c3ccccc23)SC2CC(=O)N12 (stereo not shown) [Preparation 19, 2-(3'-Indole)methylpenem-3-carboxylic Acid] | 0.03 (≈ 0.0999 µM) | 0.06 (≈ 0.2 µM) | 0.03 (≈ 0.0999 µM) | 32 | 0.5 (≈ 1.66 µM) |  | 125 (≈ 416 µM) | 8 (≈ 26.6 µM) |  | 32 (≈ 107 µM) | > 125 | 1 (≈ 3.33 µM) | 2 (≈ 6.66 µM) | 63 (≈ 210 µM) | 63 (≈ 210 µM) | 2 (≈ 6.66 µM) |  |  | 63 (≈ 210 µM) | > 125 | MIC [3, 7]: 125 µg/mL (≈ 416 µM); MIC (E. coli A-20341-1; [8]): > 125 µg/mL; MIC (Pr. vulgaris A-9716): 2 µg/mL (≈ 6.66 µM); MIC (Ps. aeruginosa A-21213): > 125 µg/mL

Source: patent US4272437A, “Antibacterial agents, and 4-thio azetidinone intermediates” (priority 1979, dated 1981)
